Laboratory results: article PMC9945734 (BMC Medicine, 2023)
“And” between values parts separate entries of the source, which are not always exact repeats. Identical values can stand only once.

System: PC-3-KQ and PC-3-KR cells
Assay: RNA-sequencing and differential gene expression
Assay type: cell-based, human
Set-up: CEP19 tpm_KQ_NTZ / CCNA1 tpm_KQ_NTZ / BTN3A3 tpm_KQ_NTZ / CAPSL tpm_KQ_NTZ / CELF3 tpm_KQ_NTZ / C5orf63 tpm_KQ_NTZ / tpm MSMP / tpm MYH7B / tpm CACNG8 / CNTNAP3B tpm_KQ_NTZ / IL21R tpm_KQ_NTZ / CYP8B1 tpm_KQ_NTZ / C2orf78 tpm_KQ_NTZ / CALB1 tpm_KQ_NTZ / COL4A3 tpm_KQ_NTZ / CFB tpm_KQ_NTZ / PFKFB1 tpm_KQ_NTZ / BTBD11 tpm_KQ_NTZ: scale not given here
Conditions: RNA-Seq
[1] = PC-3-KQ cells with NTZ, replicates NTZ1-3, listed as NTZ

SMILES: CC(=O)Oc1ccccc1C(=O)Nc1ncc([N+](=O)[O-])s1 [Nitazoxanide]
- tpm DMPK [1]: 0.419 and 0.3493 and 0.1665
- tpm DRP2 [1]: -0.6676 and -1.3 and -0.607
- tpm ECM2 [1]: -0.5146 (2×) and 0.2506
- tpm FAM186B [1]: -0.5789 and -0.1828 and -0.4779
- tpm FER1L6 [1]: -0.0478 and 0.008832 and -0.09563
- tpm FLT1 [1]: 0.161 and -0.1482 and -0.7906
- tpm FSD2 [1]: -0.9288 and -1.378 and -0.8049
- tpm FTH1 [1]: 1.05 and 1.051 and 1.128
- tpm FXYD3 [1]: -0.3733 and -0.2655 and -0.4971
- tpm GALNT12 [1]: 0.1641 and 0.2605 and 0.1597
- tpm GRAMD2A [1]: -1.217 and -0.8334 and -0.5772
- tpm HID1 [1]: 1.101 and 0.7299 and 0.9267
- tpm HPSE2 [1]: -0.4281 and -0.1645 and -0.06191
- tpm IDO1 [1]: -0.05198 and -0.1635 and 0.07694
- tpm IGDCC4 [1]: 1.025 and 0.5822 and 0.3088
- tpm INHBA [1]: -0.4046 and -0.5562 and -0.8145
- tpm INHBB [1]: 0.08661 and -0.02356 and -0.07924
- tpm KIAA1755 [1]: -0.4724 and -0.3852 and -0.1722
- tpm KLHDC7B [1]: 1.013 and 1.073 and 1.158
- tpm LOC105374299 [1]: 0.8275 and 1.276 and 1.486
- tpm LOC107987158 [1]: 0.1622 and -0.3121 and -1.443
- tpm LONRF2 [1]: 0.1017 (2×) and -0.7266
- tpm MAP7D3 [1]: 0.1661 and 0.1563 and -0.001507
- tpm MEF2C [1]: 0.3074 (2×) and -0.8164
- tpm MEOX1 [1]: -0.388 and -0.5893 and -0.8851
- tpm MINAR1 [1]: 1.487 and 0.4714 and 0.64
- tpm MSMP [1]: -0.1946 and -0.01672 and -0.03466
- tpm MUC4 [1]: 0.5142 and 1.164 and 1.212
- tpm MYH7B [1]: -0.4262 and -0.2568 and 0.1543
- tpm PDGFRL [1]: 0.618 and 0.4346 and 0.4486
- tpm PLEKHA7 [1]: -0.3096 and -0.2197 and -0.3271
- tpm PLEKHG1 [1]: -0.07347 and -0.05792 and -0.2
- tpm PRRT4 [1]: 0.01578 and 0.2412 and 0.04865
- tpm RORC [1]: 0.6069 and 0.189 and 1.342
- tpm RP1L1 [1]: -0.07855 and -0.3562 and -1.072
- tpm RPP25 [1]: 0.2387 and 0.2331 and 0.2609
- tpm SAT1 [1]: 0.7632 and 0.7179 and 0.7837
- tpm SAXO2 [1]: -1.3 and 0.5697 and 0.468
- tpm SERPINA5 [1]: 0.2889 and 0.09986 and -0.2457
- tpm SERPINB3 [1]: -1.23 and -0.7997 and -0.9984
- tpm SERPINF2 [1]: 0.3503 and 0.1655 and 0.444
- tpm SGK3 [1]: -0.2978 and 0.6129 and 0.5003
- tpm SLC22A4 [1]: -0.6184 and -1.014
- tpm SLFN11 [1]: -0.5865 and -0.5524 (2×)
- tpm SRPX [1]: 0.5121 and 0.498 and 0.6168
- tpm STARD4 [1]: 0.9661 and 0.7143
- tpm SVEP1 [1]: -0.8267 and -1.268 and -1.176
- tpm TBX2 [1]: 0.468 and 0.2574 and 0.908
- tpm TCN1 [1]: 0.4136 and 0.08826 and 0.5034
- tpm TNF [1]: 0.3176 and 0.1804
- tpm TNFRSF6B [1]: -0.5827 and 0.1186 and -0.2431
- tpm TNFSF14 [1]: 1.093 and 1.162 and 1.079
- tpm TRIM31 [1]: -0.6801 and -0.02951 and -0.5211
- tpm UGT2B7 [1]: -0.4066 and -0.3815 and -0.4168
- tpm XKRX [1]: -0.4846 and 0.05471 and 0.3317
- tpm ZNF28 [1]: 0.116 and -1.142 and -0.2155
- tpm ZNF302 [1]: -0.4799 and 0.1803 and -0.08669
- AADACL3 Change (KQ-Control vs KQ-NTZ) (PC-3-KQ cells): DOWN
- AADACL3 logFC (KQ-Control vs KQ-NTZ) (PC-3-KQ cells): -1.5511
- ABCA1 Change (KQ-Control vs KQ-NTZ) (PC-3-KQ cells): DOWN
- ABCA1 logFC (KQ-Control vs KQ-NTZ) (PC-3-KQ cells): -1.1023
- ABCB4 Change (KQ-Control vs KQ-NTZ) (PC-3-KQ cells): DOWN
- ABCB4 logFC (KQ-Control vs KQ-NTZ) (PC-3-KQ cells): -1.0876
- ADORA1 Change (KQ-Control vs KQ-NTZ) (PC-3-KQ cells): DOWN
- ADORA1 logFC (KQ-Control vs KQ-NTZ) (PC-3-KQ cells): -0.6297
- ANKRD36C Change (KQ-Control vs KQ-NTZ) (PC-3-KQ cells): DOWN
- ANKRD36C logFC (KQ-Control vs KQ-NTZ) (PC-3-KQ cells): -0.823
- ANKRD63 Change (KQ-Control vs KQ-NTZ) (PC-3-KQ cells): DOWN
- ANKRD63 logFC (KQ-Control vs KQ-NTZ) (PC-3-KQ cells): -0.8191
- ANXA8L1 Change (KQ-Control vs KQ-NTZ) (PC-3-KQ cells): DOWN
- ANXA8L1 logFC (KQ-Control vs KQ-NTZ) (PC-3-KQ cells): -1.2337
- APLN Change (KQ-Control vs KQ-NTZ) (PC-3-KQ cells): DOWN
- APLN logFC (KQ-Control vs KQ-NTZ) (PC-3-KQ cells): -0.8669
- ARL10 Change (KQ-Control vs KQ-NTZ) (PC-3-KQ cells): DOWN
- ARL10 logFC (KQ-Control vs KQ-NTZ) (PC-3-KQ cells): -0.6715
- ARX logFC (KQ-Control vs KQ-NTZ) (PC-3-KQ cells): 0.8688
- ASB2 Change (KQ-Control vs KQ-NTZ) (PC-3-KQ cells): DOWN
- ASB2 logFC (KQ-Control vs KQ-NTZ) (PC-3-KQ cells): -1.5518
- ASRGL1 Change (KQ-Control vs KQ-NTZ) (PC-3-KQ cells): DOWN
- ASRGL1 logFC (KQ-Control vs KQ-NTZ) (PC-3-KQ cells): -0.6209
